Structures are written as SMILES.

The target in the test is T1, monkey chymase (Macaca fascicularis, UniProt P56435).
T1 construct: chymase was extracted from homogenized monkey cheek pouch and stomach; from tissue; host or cells: monkey cheek pouch and stomach
T1 sequence (P56435 22-247): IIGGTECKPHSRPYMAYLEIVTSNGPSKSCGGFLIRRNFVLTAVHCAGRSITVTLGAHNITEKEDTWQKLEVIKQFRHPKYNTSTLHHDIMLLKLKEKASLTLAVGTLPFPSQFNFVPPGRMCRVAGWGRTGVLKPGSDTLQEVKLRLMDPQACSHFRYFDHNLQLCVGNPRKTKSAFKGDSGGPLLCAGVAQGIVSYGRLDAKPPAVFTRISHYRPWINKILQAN
As to the kind of experiment: Monkey chymase inhibitory activity (in vitro, angiotensin I substrate). Type of test: biochemical. To be noted: chymase purified from monkey cheek pouch and stomach; substrate angiotensin I; 37° C.; read-out: Monkey Chymase Inhibition (IC50:nM). The protocol:
The inhibitory activities of the compounds on monkey chymase and human chymase were tested in vitro. The test compounds are as shown by Compound Nos. in Tables 13 and 14.
Preparation of Monkey Chymase
Chymase was purified from monkey cheek pouch and stomach in the following manner.
Briefly, chymase was extracted from homogenized monkey cheek pouch and stomach with 0.01 mol/1000 ml sodium phosphate buffer, pH 7.4, containing 2 mol/1000 ml KCl and 0.1% Nonidet P-40 (Amresco Inc.). The solution containing chymase was applied to a heparin actigel column, and the chymase-rich fractions were collected.
Measurement of Chymase Inhibitory Activity (In Vitro Assay)
Briefly, the purified monkey or human chymase was diluted to an appropriate concentration with 0.01 mol/1000 ml sodium phosphate buffer, pH 7.4, containing 2 mol/1000 ml KCl and 0.1% Nonidet P-40 and used as enzyme solution. Angiotensin I (Peptide Institute Inc.) was diluted with water to 5 mg/ml and used as substrate solution. Test compounds were serially diluted with 10% DMSO. […] After pre-incubation of the mixture at 37° C., 20 μl of the substrate solution was added to the enzyme-test compound mixture and the new mixture was incubated at 37° C. Fifty μl of 30% trichloroacetic acid solution was finally added to stop the enzymatic reaction.
The amount of L-His-L-Leu was measured as angiotensin II produced by the enzymatic reaction. Briefly, 10 μl of the reaction mixture and 10 μl of 1% orthophthalaldehyde solution dissolved in methanol were mixed with 100 μl of 2 mol/1000 ml NaOH and kept at room temperature. The reaction was then stopped by adding 10 μl of 6 mol/1000 ml HCl.

The term IC50 denotes the concentration at which inhibition is half-maximal. With `CC(C)[C@H](NC(=O)c1ccc2c(c1)OCO2)C(=O)N1CCC[C@H]1C(=O)NC(Cc1csc2ccccc12)C(=O)C(F)(F)F` (stereo partly drawn) [I-A-57], the IC50 was 100 nM.
To `Cc1noc(C)c1C(=O)N[C@@H](Cc1ccccc1)C(=O)N1CCC[C@H]1C(=O)NC(Cc1csc2ccccc12)C(=O)C(F)(F)F` (stereo partly drawn) [I-A-8] belongs 48 nM.
With `Cc1noc(C)c1C(=O)N[C@H](C(=O)N1CCC[C@H]1C(=O)NC(Cc1cccc(Cl)c1)C(=O)C(F)(F)F)C(C)C` (stereo partly drawn) [I-A-38], the IC50 was 110 nM.
On to `Cc1noc(C)c1C(=O)N[C@H](C(=O)N1CCC[C@H]1C(=O)NC(Cc1ccccc1F)C(=O)C(F)(F)F)C(C)C` (stereo partly drawn) [I-A-27], for which the IC50 turned out to be 51 nM.
To `CC[C@H](NC(=O)c1c(C)noc1C)C(=O)N1CCC[C@H]1C(=O)NC(Cc1ccc2ccccc2c1)C(=O)C(F)(F)F` (stereo partly drawn) [I-A-13] belongs 50 nM; to `CC(C)[C@H](NC(=O)c1ccco1)C(=O)N1CCC[C@H]1C(=O)NC(Cc1csc2ccccc12)C(=O)C(F)(F)F` (stereo partly drawn) [I-A-74], 350 nM.
To `CC(C)[C@H](NC(=O)c1ccc2snnc2c1)C(=O)N1CCC[C@H]1C(=O)NC(Cc1csc2ccccc12)C(=O)C(F)(F)F` (stereo partly drawn) [I-A-55] belongs 63 nM; to `Cc1noc(C)c1C(=O)N[C@H](C(=O)N1CCC[C@H]1C(=O)NC(Cc1ccc(I)cc1)C(=O)C(F)(F)F)C(C)C` (stereo partly drawn) [I-A-42], 130 nM; to `Cc1nc(C)c(C(=O)N[C@H](C(=O)N2CCC[C@H]2C(=O)NC(Cc2csc3ccccc23)C(=O)C(F)(F)F)C(C)C)s1` (stereo partly drawn) [I-A-65], 37 nM.
Under `Cc1noc(C)c1C(=O)N[C@H](C(=O)N1CCC[C@H]1C(=O)NC(Cc1ccc(Cl)cc1)C(=O)C(F)(F)F)C(C)C` (stereo partly drawn) [I-A-29] stands 57 nM; under `CC(C)[C@H](NC(=O)CN1CCN(CC(=O)O)C1=O)C(=O)N1CCC[C@H]1C(=O)NC(Cc1ccc2ccccc2c1)C(=O)C(F)(F)F` (stereo partly drawn) [I-A-83], 61 nM.
As to `CC(C)[C@H](NC(=O)CN1CCN(CC(=O)O)C1=O)C(=O)N1CCC[C@H]1C(=O)NC(Cc1cc2ccccc2s1)C(=O)C(F)(F)F` (stereo partly drawn) [I-A-85], the IC50 amounted to 75 nM.

Source of the values: patent US6852744B2, “Pyrrolidine derivatives and their use as chymase inhibitor” (Dainippon Pharmaceutical Co., Ltd., priority 2000, dated 2005).
